Source: ChEMBL document CHEMBL3885861, “Open TG-GATES”

Species: Rattus norvegicus
Experiment: Open TG-GATES - Regimen: Daily Repeat
Assay type: toxicity, organism-based, Sprague-Dawley
Set-up: regimen Daily Repeat, gender Male, age 6 weeks
Conditions: in vivo, po, route gavage; for APTT / Bas / Eos / Fbg / Hb / Ht / Lym / MCH / MCHC / MCV / Mono / Neu / PT / Plat / RBC / Ret / WBC: tissue Blood; for KIDNEY_L / KIDNEY_R / KIDNEY_TOTAL: tissue Kidney; for LIVER: tissue Liver; for A/G / ALP / ALT / AST / BUN / CRE / Ca / Cl / DBIL / GLC / IP / K / LDH / Na / PL / RALB / TBIL / TC / TG / TP / gamma-GTP: tissue Plasma
[1] = 0 mg/kg, 72 h, dose level Control, time 3 day
[2] = 0 mg/kg, […], dose level Control, time 7 day
[3] = 0 mg/kg, […], dose level Control, time 14 day
[4] = 0 mg/kg, […], dose level Control, time 28 day
[5] = 10 mg/kg, 72 h, dose level Low, time 3 day
[6] = 10 mg/kg, […], dose level Low, time 7 day
[7] = 10 mg/kg, […], dose level Low, time 14 day
[8] = 10 mg/kg, […], dose level Low, time 28 day

## CC1=C(/C=C/C(C)=C/C=C/C(C)=C/CO)C(C)(C)CCC1 [RETINOL]
[1]
  TERMINAL_BW: 232.6 g
  APTT: 21.2 s
  Bas: 0%
  Eos: 0.8%
  Fbg: 302.6 mg/dL
  Hb: 13.6 g/dL
  Ht: 39.5%
  Lym: 81.8%
  MCH: 21.4 pg
  MCHC: 34.4%
  MCV: 62 fL
  Mono: 2.8%
  Neu: 14%
  PT: 16.6 s
  Plat: 116.8 x10_4/uL
  RBC: 637 x10_4/ul
  Ret: 6.6%
  WBC: 108.7 x10_2/uL
  KIDNEY_L: 1.1 g
  KIDNEY_R: 1.1 g
  KIDNEY_TOTAL: 2.1 g
  LIVER: 11 g
  A/G: 1.2
  ALP: 1642.8 IU/L
  ALT: 49.4 IU/L
  AST: 76.2 IU/L
  BUN: 18.6 mg/dL
  CRE: 0.1 mg/dL
  Ca: 10.9 mg/dL
  Cl: 106.8 meq/L
  DBIL: 0 mg/dL
  GLC: 199.8 mg/dL
  IP: 6.8 mg/dL
  K: 4.6 meq/L
  LDH: 251.8 IU/L
  Na: 141.2 meq/L
  PL: 145.4 mg/dL
  RALB: 3 g/dL
  TBIL: 0.012 mg/dL
  TC: 76.2 mg/dL
  TG: 94.8 mg/dL
  TP: 5.5 g/dL
  gamma-GTP: 1 IU/L
[2]
  TERMINAL_BW: 257.6 g
  APTT: 20.5 s
  Bas: 0%
  Eos: 0.8%
  Fbg: 304.8 mg/dL
  Hb: 13.6 g/dL
  Ht: 38.8%
  Lym: 79.6%
  MCH: 20.9 pg
  MCHC: 35.1%
  MCV: 59.7 fL
  Mono: 2.2%
  Neu: 16.4%
  PT: 16.3 s
  Plat: 117.2 x10_4/uL
  RBC: 650.4 x10_4/ul
  Ret: 5.1%
  WBC: 114.1 x10_2/uL
  KIDNEY_L: 1.1 g
  KIDNEY_R: 1.1 g
  KIDNEY_TOTAL: 2.2 g
  LIVER: 12.5 g
  A/G: 1.3
  ALP: 1920 IU/L
  ALT: 39.6 IU/L
  AST: 67.6 IU/L
  BUN: 17.4 mg/dL
  CRE: 0.2 mg/dL
  Ca: 10.7 mg/dL
  Cl: 106.4 meq/L
  DBIL: 0 mg/dL
  GLC: 189 mg/dL
  IP: 6.2 mg/dL
  K: 4.4 meq/L
  LDH: 219.6 IU/L
  Na: 142 meq/L
  PL: 145.2 mg/dL
  RALB: 3.2 g/dL
  TBIL: 0.002 mg/dL
  TC: 74 mg/dL
  TG: 109.6 mg/dL
  TP: 5.6 g/dL
  gamma-GTP: 1.2 IU/L
[3]
  TERMINAL_BW: 301.9 g
  APTT: 21.4 s
  Bas: 0%
  Eos: 0.4%
  Fbg: 312 mg/dL
  Hb: 13.7 g/dL
  Ht: 38.7%
  Lym: 78%
  MCH: 20.9 pg
  MCHC: 35.4%
  MCV: 59.2 fL
  Mono: 2%
  Neu: 18.2%
  PT: 16.1 s
  Plat: 122.4 x10_4/uL
  RBC: 654 x10_4/ul
  Ret: 5.2%
  WBC: 121.8 x10_2/uL
  KIDNEY_L: 1.2 g
  KIDNEY_R: 1.2 g
  KIDNEY_TOTAL: 2.4 g
  LIVER: 13.8 g
  A/G: 1.3
  ALP: 1383 IU/L
  ALT: 34.6 IU/L
  AST: 64.6 IU/L
  BUN: 17.4 mg/dL
  CRE: 0.2 mg/dL
  Ca: 10.8 mg/dL
  Cl: 106 meq/L
  DBIL: 0 mg/dL
  GLC: 201.8 mg/dL
  IP: 6.1 mg/dL
  K: 4.2 meq/L
  LDH: 226.8 IU/L
  Na: 142 meq/L
  PL: 152 mg/dL
  RALB: 3.2 g/dL
  TBIL: 0.004 mg/dL
  TC: 74.8 mg/dL
  TG: 103 mg/dL
  TP: 5.9 g/dL
  gamma-GTP: 1.2 IU/L
[4]
  TERMINAL_BW: 374.5 g
  APTT: 24.2 s
  Bas: 0%
  Eos: 1%
  Fbg: 354.8 mg/dL
  Hb: 15.1 g/dL
  Ht: 42.6%
  Lym: 83.8%
  MCH: 19.5 pg
  MCHC: 35.5%
  MCV: 54.8 fL
  Mono: 1.6%
  Neu: 12.6%
  PT: 15.8 s
  Plat: 113.8 x10_4/uL
  RBC: 778.2 x10_4/ul
  Ret: 2.6%
  WBC: 112.5 x10_2/uL
  KIDNEY_L: 1.4 g
  KIDNEY_R: 1.4 g
  KIDNEY_TOTAL: 2.7 g
  LIVER: 15.6 g
  A/G: 1.2
  ALP: 1062.8 IU/L
  ALT: 43.4 IU/L
  AST: 65.4 IU/L
  BUN: 16.8 mg/dL
  CRE: 0.2 mg/dL
  Ca: 10.6 mg/dL
  Cl: 106 meq/L
  DBIL: 0 mg/dL
  GLC: 194 mg/dL
  IP: 6.3 mg/dL
  K: 4 meq/L
  LDH: 145.6 IU/L
  Na: 141.2 meq/L
  PL: 147 mg/dL
  RALB: 3.3 g/dL
  TBIL: 0.026 mg/dL
  TC: 78 mg/dL
  TG: 100.8 mg/dL
  TP: 6.1 g/dL
  gamma-GTP: 1.2 IU/L
[5]
  TERMINAL_BW: 230.9 g
  APTT: 22.3 s
  Bas: 0%
  Eos: 0.8%
  Fbg: 311.2 mg/dL
  Hb: 13.4 g/dL
  Ht: 38.9%
  Lym: 80.8%
  MCH: 21 pg
  MCHC: 34.4%
  MCV: 61.2 fL
  Mono: 2.6%
  Neu: 15.4%
  PT: 16.8 s
  Plat: 123.7 x10_4/uL
  RBC: 636 x10_4/ul
  Ret: 6.2%
  WBC: 97.2 x10_2/uL
  KIDNEY_L: 1 g
  KIDNEY_R: 1 g
  KIDNEY_TOTAL: 2 g
  LIVER: 10.7 g
  A/G: 1.3
  ALP: 2143.6 IU/L
  ALT: 51.6 IU/L
  AST: 82 IU/L
  BUN: 17 mg/dL
  CRE: 0.1 mg/dL
  Ca: 11 mg/dL
  Cl: 107.8 meq/L
  DBIL: 0 mg/dL
  GLC: 191.4 mg/dL
  IP: 6.5 mg/dL
  K: 4.3 meq/L
  LDH: 262.6 IU/L
  Na: 142.2 meq/L
  PL: 153.6 mg/dL
  RALB: 3.2 g/dL
  TBIL: 0.016 mg/dL
  TC: 78.2 mg/dL
  TG: 112.6 mg/dL
  TP: 5.6 g/dL
  gamma-GTP: 1 IU/L
[6]
  TERMINAL_BW: 257.9 g
  APTT: 23.3 s
  Bas: 0%
  Eos: 0.8%
  Fbg: 298.4 mg/dL
  Hb: 13.6 g/dL
  Ht: 39.2%
  Lym: 79.4%
  MCH: 21.2 pg
  MCHC: 34.8%
  MCV: 60.9 fL
  Mono: 2.4%
  Neu: 16.8%
  PT: 15.9 s
  Plat: 111.8 x10_4/uL
  RBC: 644 x10_4/ul
  Ret: 5.1%
  WBC: 94.2 x10_2/uL
  KIDNEY_L: 1.1 g
  KIDNEY_R: 1.1 g
  KIDNEY_TOTAL: 2.2 g
  LIVER: 12.5 g
  A/G: 1.3
  ALP: 1621.4 IU/L
  ALT: 41.6 IU/L
  AST: 68.2 IU/L
  BUN: 17.2 mg/dL
  CRE: 0.2 mg/dL
  Ca: 10.7 mg/dL
  Cl: 107.2 meq/L
  DBIL: 0 mg/dL
  GLC: 193.2 mg/dL
  IP: 6.2 mg/dL
  K: 4.1 meq/L
  LDH: 216 IU/L
  Na: 142.4 meq/L
  PL: 157.4 mg/dL
  RALB: 3.2 g/dL
  TBIL: 0.006 mg/dL
  TC: 76.4 mg/dL
  TG: 160.4 mg/dL
  TP: 5.7 g/dL
  gamma-GTP: 1.4 IU/L
[7]
  TERMINAL_BW: 293.8 g
  APTT: 23.8 s
  Bas: 0%
  Eos: 0.8%
  Fbg: 295.4 mg/dL
  Hb: 14.4 g/dL
  Ht: 40.6%
  Lym: 83.6%
  MCH: 20.6 pg
  MCHC: 35.4%
  MCV: 58.2 fL
  Mono: 1.8%
  Neu: 13.2%
  PT: 16.2 s
  Plat: 107.1 x10_4/uL
  RBC: 698 x10_4/ul
  Ret: 3.9%
  WBC: 114.6 x10_2/uL
  KIDNEY_L: 1.1 g
  KIDNEY_R: 1.2 g
  KIDNEY_TOTAL: 2.3 g
  LIVER: 12.9 g
  A/G: 1.2
  ALP: 1426.6 IU/L
  ALT: 42.8 IU/L
  AST: 70.6 IU/L
  BUN: 17.6 mg/dL
  CRE: 0.2 mg/dL
  Ca: 10.6 mg/dL
  Cl: 108.4 meq/L
  DBIL: 0 mg/dL
  GLC: 195 mg/dL
  IP: 5.7 mg/dL
  K: 4 meq/L
  LDH: 181.2 IU/L
  Na: 143.2 meq/L
  PL: 150 mg/dL
  RALB: 3.1 g/dL
  TBIL: 0.004 mg/dL
  TC: 70.2 mg/dL
  TG: 156.8 mg/dL
  TP: 5.7 g/dL
  gamma-GTP: 0.8 IU/L
[8]
  TERMINAL_BW: 358.5 g
  APTT: 26.8 s
  Bas: 0%
  Eos: 1%
  Fbg: 330 mg/dL
  Hb: 14.9 g/dL
  Ht: 41.2%
  Lym: 82.8%
  MCH: 19.8 pg
  MCHC: 36.2%
  MCV: 54.6 fL
  Mono: 1.6%
  Neu: 14.6%
  PT: 15.8 s
  Plat: 102.3 x10_4/uL
  RBC: 756 x10_4/ul
  Ret: 2.4%
  WBC: 86 x10_2/uL
  KIDNEY_L: 1.3 g
  KIDNEY_R: 1.3 g
  KIDNEY_TOTAL: 2.6 g
  LIVER: 14.9 g
  A/G: 1.2
  ALP: 1127 IU/L
  ALT: 46.2 IU/L
  AST: 69.4 IU/L
  BUN: 15.2 mg/dL
  CRE: 0.2 mg/dL
  Ca: 10.4 mg/dL
  Cl: 108.4 meq/L
  DBIL: 0 mg/dL
  GLC: 182.8 mg/dL
  IP: 5.8 mg/dL
  K: 4.1 meq/L
  LDH: 167.2 IU/L
  Na: 142 meq/L
  PL: 140.2 mg/dL
  RALB: 3.2 g/dL
  TBIL: 0.016 mg/dL
  TC: 67.8 mg/dL
  TG: 168.2 mg/dL
  TP: 6 g/dL
  gamma-GTP: 1.4 IU/L
